In patent publication US9567345B2, “Pharmaceutically active pyrazolo-triazine derivatives” (LEAD DISCOVERY CENTER GMBH, priority 2012, dated 2017):
Read-outs that look alike come from different tables or passages of the source.

Tests used:
Format in all cases: biochemical
CDK7/CycH/Mat1 = CDK7/CycH/Mat1 (Homo sapiens, UniProt P50613); test: CDK7 Enzymatic Activity Assay (Lance Kinase Activity Assay, FRET)
In short: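 TR-FRET (LANCE) kinase assay: CDK7/CycH/Mat1 phosphorylates Ulight-MBP substrate for 1 h at room temperature in pH 7.5 HEPES buffer; detection 1 h with Eu-labelled anti-phospho antibody plus EDTA.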

CDK9/Cyclin T1 = CDK9/Cyclin T1 (Homo sapiens, UniProt P50750); test: CDK9 Enzymatic Activity Assay (Lance Kinase Activity Assay, FRET)
CDK9/Cyclin T1, sequence (P50750 whole entry): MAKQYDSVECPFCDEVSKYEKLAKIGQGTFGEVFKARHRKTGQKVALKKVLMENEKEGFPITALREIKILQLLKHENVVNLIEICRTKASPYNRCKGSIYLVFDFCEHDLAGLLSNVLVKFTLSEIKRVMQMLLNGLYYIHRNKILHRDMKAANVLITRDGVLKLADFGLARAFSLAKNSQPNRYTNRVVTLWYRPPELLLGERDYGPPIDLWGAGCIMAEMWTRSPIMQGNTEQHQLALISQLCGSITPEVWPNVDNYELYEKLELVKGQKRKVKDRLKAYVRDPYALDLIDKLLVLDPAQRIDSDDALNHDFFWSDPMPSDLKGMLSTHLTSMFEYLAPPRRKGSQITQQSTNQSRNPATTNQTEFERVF
CDK9/Cyclin T1, sequence (O60563 whole entry partner): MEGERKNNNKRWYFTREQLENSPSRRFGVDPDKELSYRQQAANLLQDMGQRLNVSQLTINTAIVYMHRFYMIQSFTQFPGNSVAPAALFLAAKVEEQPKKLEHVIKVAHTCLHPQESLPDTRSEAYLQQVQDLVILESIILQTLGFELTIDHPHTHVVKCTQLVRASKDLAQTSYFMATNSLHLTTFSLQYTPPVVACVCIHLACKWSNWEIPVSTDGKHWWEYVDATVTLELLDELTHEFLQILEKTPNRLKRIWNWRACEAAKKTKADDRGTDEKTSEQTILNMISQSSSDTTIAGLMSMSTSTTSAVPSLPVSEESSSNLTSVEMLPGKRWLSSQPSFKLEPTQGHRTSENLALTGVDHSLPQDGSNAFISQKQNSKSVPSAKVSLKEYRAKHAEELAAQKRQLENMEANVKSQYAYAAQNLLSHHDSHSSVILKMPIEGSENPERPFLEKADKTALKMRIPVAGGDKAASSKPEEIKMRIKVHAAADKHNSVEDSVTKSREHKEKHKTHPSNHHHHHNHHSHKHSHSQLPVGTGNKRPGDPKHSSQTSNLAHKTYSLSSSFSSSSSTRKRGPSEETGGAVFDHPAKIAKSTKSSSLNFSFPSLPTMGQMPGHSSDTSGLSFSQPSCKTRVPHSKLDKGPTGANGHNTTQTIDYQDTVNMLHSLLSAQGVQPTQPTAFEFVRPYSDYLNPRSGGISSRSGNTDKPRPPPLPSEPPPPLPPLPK
In short: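 CDK9/cyclin T1 phosphorylation of a ULight-MBP peptide was run for 1 h at room temperature in pH 7.5 HEPES buffer with MgCl2, EGTA, DTT and Tween-20. It was followed by 1 h with Eu-anti-phospho-MBP antibody (4 nM) in EDTA detection buffer. TR-FRET loss gave IC50 from 8-point, 1:3 sigmoidal dose-response curves.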

CDK2/CycA = molecular target: T1, CDK2/CycA (Homo sapiens, UniProt P24941); test: CDK2 Enzymatic Activity Assay (Lance Kinase Activity Assay, FRET)
T1 construct: purchased Proqinase
In short: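 Compounds in an 8-step, 1:3 dilution series were incubated 1 h at room temperature with CDK2/CycA, ULight-MBP substrate and ATP in pH 7.5 HEPES buffer.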

[1] = CDK7/CycH/Mat1, 25 μM ATP final, class ranges, read-out: CDK7: IC50 [nM] for CDK7 inhibition
[2] = Table 5B, class symbols per IC50 [nM] ranges of b581, read-out: CDK9: Selectivity of CDK7 inhibition over CDK9 inhibition
[3] = Table 5B, class symbols per IC50 [nM] ranges of b581, read-out: CDK2: Selectivity of CDK7 inhibition over CDK2 inhibition

CDK7/CycH/Mat1, sequence (P50613 whole entry): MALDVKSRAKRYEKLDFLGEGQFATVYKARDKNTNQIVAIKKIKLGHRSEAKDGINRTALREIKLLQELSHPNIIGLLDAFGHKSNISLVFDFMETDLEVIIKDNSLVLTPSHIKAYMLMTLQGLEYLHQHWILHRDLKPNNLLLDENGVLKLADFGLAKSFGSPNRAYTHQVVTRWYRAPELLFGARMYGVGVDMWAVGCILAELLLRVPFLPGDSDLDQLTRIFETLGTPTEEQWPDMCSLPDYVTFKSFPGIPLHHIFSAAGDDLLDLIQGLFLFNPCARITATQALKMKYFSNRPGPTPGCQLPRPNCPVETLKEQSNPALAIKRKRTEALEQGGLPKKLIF

Row | IC50 (CDK7/CycH/Mat1; [1]) [nM] | IC50 (CDK9/Cyclin T1; [2]) [nM] | IC50 (CDK2/CycA; [3]) [nM] | IC50 (CDK7/CycH/Mat1; Table 7, read-out: IC50 CDK7) [nM] | Selectivity CDK7 over CDK9 (CDK9/Cyclin T1; Table 7) [fold] | IC50 (CDK9/Cyclin T1; Table 7, read-out: IC50 CDK9) [nM] | Selectivity CDK7 over CDK2 (CDK2/CycA; Table 7) [fold] | IC50 (CDK2/CycA; Table 7, read-out: IC50 CDK2) [nM] | Structure (SMILES)
1 | < 5 | > 2500 | > 2500 | – | – | – | – | – | CC(C)c1cnn2c(NCc3ccccc3-n3cccn3)nc(C(=O)NCC3CCNCC3)nc12 [(XII-1), 4-((2-(1H-pyrazol-1-yl)benzyl)amino)-8-isopropyl-N-(piperidin-4-ylmethyl)pyrazolo[1,5-a][1,3,5]triazine-2-carboxamide]
2 | < 5 | > 2500 | 50 to 500 | – | – | – | – | – | CC(C)c1cnn2c(NCc3ccccc3-n3cccn3)nc(NC3CCCNC3)nc12 (centres unmarked) [(VIII-01), N4-(2-(1H-pyrazol-1-yl)benzyl)-8-isopropyl-N2-(piperidin-3-yl)pyrazolo[1,5-a][1,3,5]triazine-2,4-diamine]
3 | 10 to 25 | > 2500 | > 2500 | – | – | – | – | – | C#CC(C)NC(=O)c1ccccc1CNc1nc(O[C@@H]2CCCNC2)nc2c(C(C)C)cnn12 (stereo partly drawn) [(VII-109), N-(but-3-yn-2-yl)-2-(((8-isopropyl-2-((R)-piperidin-3-yloxy)pyrazolo[1,5-a][1,3,5]triazin-4-yl)amino)methyl)benzamide]
4 | < 5 | 500 to 2500 | < 50 | – | – | – | – | – | CC(C)c1cnn2c(NCc3ccccc3-n3cncn3)nc(O[C@@H]3CCNC3)nc12 [(VII-21), (R)-N-(2-(1H-1,2,4-triazol-1-yl)benzyl)-8-isopropyl-2-(pyrrolidin-3-yloxy)pyrazolo[1,5-a][1,3,5]triazin-4-amine]
5 | < 5 | 500 to 2500 | < 50 | – | – | – | – | – | CC(C)c1cnn2c(NCc3ccccc3-n3cncn3)nc(N[C@@H]3CCCNC3)nc12 [(VIII-33), (R)-N4-(2-(1H-1,2,4-triazol-1-yl)benzyl)-8-isopropyl-N2-(piperidin-3-yl)pyrazolo[1,5-a][1,3,5]triazine-2,4-diamine]
6 | < 5 | 50 to 500 | < 50 | – | – | – | – | – | CC(C)c1cnn2c(NCc3cccc(F)c3-n3cccn3)nc(O[C@@H]3CCCNC3)nc12 [(VII-42), (R)-N-(3-fluoro-2-(1H-pyrazol-1-yl)benzyl)-8-isopropyl-2-(piperidin-3-yloxy)pyrazolo[1,5-a][1,3,5]triazin-4-amine]
7 | 10 to 25 | 500 to 2500 | 50 to 500 | – | – | – | – | – | CC(C)c1cnn2c(NCc3ccccc3[S+](C)[O-])nc(O[C@@H]3CCCNC3)nc12 (stereo partly drawn) [(VII-152), 8-isopropyl-N-(2-(methylsulfinyl)benzyl)-2-((R)-piperidin-3-yloxy)pyrazolo[1,5-a][1,3,5]triazin-4-amine]
8 | > 25 | > 2500 | > 2500 | – | – | – | – | – | CC(C)c1cnn2c(NCc3ccccc3C3=CCCCC3)nc(O[C@@H]3CCCNC3)nc12 [(VII-117), (R)-8-isopropyl-2-(piperidin-3-yloxy)-N-((2′,3′,4′,5′-tetrahydro-[1,1′-biphenyl]-2-yl)methyl)pyrazolo[1,5-a][1,3,5]triazin-4-amine]
9 | < 5 | 500 to 2500 | 50 to 500 | < 5 | 2733 | 500 to 2500 | 342 | 50 to 500 | CC(C)c1cnn2c(NCc3ccccc3S(=O)(=O)N(C)C)nc(O[C@@H]3CCCNC3)nc12 [(VII-38), (R)-2-(((8-isopropyl-2-(piperidin-3-yloxy)pyrazolo[1,5-a][1,3,5]triazin-4-yl)amino)methyl)-N,N-dimethylbenzenesulfonamide]
10 | < 5 | > 2500 | 50 to 500 | – | – | – | – | – | CC(C)c1cnn2c(NCc3ccccc3S(=O)(=O)N3CCN(C)CC3)nc(O[C@@H]3CCCNC3)nc12 [(VII-107), (R)-8-isopropyl-N-(2-((4-methylpiperazin-1-yl)sulfonyl)benzyl)-2-(piperidin-3-yloxy)pyrazolo[1,5-a][1,3,5]triazin-4-amine]
11 | < 5 | > 2500 | 500 to 2500 | – | – | – | – | – | CC(C)c1cnn2c(NCc3ccccc3N=S(C)(C)=O)nc(O[C@@H]3CCCNC3)nc12 [(VII-151), N-(2-(((8-isopropyl-2-((R)-piperidin-3-yloxy)pyrazolo[1,5-a][1,3,5]triazin-4-yl)amino)methyl)phenyl)-S,S-dimethylsulfoximine]
12 | > 25 | > 2500 | > 2500 | – | – | – | – | – | Cc1ccc(CNc2nc(O[C@@H]3CCCNC3)nc3c(C(C)C)cnn23)c(OC2CCOC2)c1 (stereo partly drawn) [(VII-093), 8-isopropyl-N-(4-methyl-2-((tetrahydrofuran-3-yl)oxy)benzyl)-2-((R)-piperidin-3-yloxy)pyrazolo[1,5-a][1,3,5]triazin-4-amine]
13 | < 5 | > 2500 | > 2500 | – | – | – | – | – | CC(C)c1cnn2c(NCc3ccccc3-n3cccn3)nc(C(=O)NCCCCN)nc12 [(XII-5), 4-((2-(1H-pyrazol-1-yl)benzyl)amino)-N-(4-aminobutyl)-8-isopropylpyrazolo[1,5-a][1,3,5]triazine-2-carboxamide]
14 | 10 to 25 | > 2500 | 500 to 2500 | – | – | – | – | – | CC(C)c1cnn2c(NCc3ccccc3-n3cccn3)nc(OC3CNCCOC3)nc12 (centres unmarked) [(VII-122), 2-((1,4-oxazepan-6-yl)oxy)-N-(2-(1H-pyrazol-1-yl)benzyl)-8-isopropylpyrazolo[1,5-a][1,3,5]triazin-4-amine]
15 | < 5 | > 2500 | 50 to 500 | – | – | – | – | – | CC(C)c1cnn2c(NCc3ccccc3S(C)(=O)=O)nc(O[C@@H]3CCCNC3)nc12 [(VII-154), (R)-8-isopropyl-N-(2-(methylsulfonyl)benzyl)-2-(piperidin-3-yloxy)pyrazolo[1,5-a][1,3,5]triazin-4-amine]
16 | < 5 | 500 to 2500 | < 50 | – | – | – | – | – | CC(C)c1cnn2c(NCc3ccccc3-n3cccn3)nc(O[C@@H]3CCNC3)nc12 [(VII-02), (R)-N-(2-(1H-pyrazol-1-yl)benzyl)-8-isopropyl-2-(pyrrolidin-3-yloxy)pyrazolo[1,5-a][1,3,5]triazin-4-amine]
17 | < 5 | 50 to 500 | 50 to 500 | – | – | – | – | – | CC(C)c1cnn2c(NCc3ccccc3-n3cc(Cl)cn3)nc(O[C@@H]3CCCNC3)nc12 [(VII-52), (R)-N-(2-(4-chloro-1H-pyrazol-1-yl)benzyl)-8-isopropyl-2-(piperidin-3-yloxy)pyrazolo[1,5-a][1,3,5]triazin-4-amine]
18 | < 5 | 50 to 500 | 50 to 500 | – | – | – | – | – | CC(C)c1cnn2c(NCc3cccc4cccnc34)nc(O[C@@H]3CCCNC3)nc12 [(VII-35), (R)-8-isopropyl-2-(piperidin-3-yloxy)-N-(quinolin-8-ylmethyl)pyrazolo[1,5-a][1,3,5]triazin-4-amine]
19 | 5 to 10 | > 2500 | 500 to 2500 | – | – | – | – | – | CC(C)Oc1ccccc1CNc1nc(N[C@@H]2CCCNC2)nc2c(C(C)C)cnn12 [(VIII-32), (R)-N4-(2-isopropoxybenzyl)-8-isopropyl-N2-(piperidin-3-yl)pyrazolo[1,5-a][1,3,5]triazine-2,4-diamine]
20 | > 25 | > 2500 | > 2500 | – | – | – | – | – | CC(C)c1cnn2c(NCc3ccccc3-n3cccn3)nc(N3CC(N4CCC(F)(F)C4)C3)nc12 [(VIII-041), N-(2-(1H-pyrazol-1-yl)benzyl)-2-(3-(3,3-difluoropyrrolidin-1-yl)azetidin-1-yl)-8-isopropylpyrazolo[1,5-a][1,3,5]triazin-4-amine]
